Experimental data published in patent publication US20220380341A1, “INHIBITORS OF HIV-1 NEF FOR THE TREATMENT OF HIV DISEASE” (priority 2018, published 2022).
Where two headings read alike, the source gives them in different places.

Columns and labels:
HIV-1NL4-3 = test: HIV-1 infectivity assay in TZM-bl reporter cell line (LTR-luciferase, 48 h); assay type: cell-based; conditions: Human immunodeficiency virus 1, TZM-bl
In short: (§1)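 Read-out is luciferase from an integrated HIV-1 LTR reporter in TZM-bl cells, 48 h after HIV-1NL4-3 infection in the presence of 1 μM compound. Scale set by DMSO-treated wild-type-infected cells (0%) and Nef-defective virus (100% Nef-dependent effect). Cell Titer Blue measures cytotoxicity without virus.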

HIV-1 NL4-3 = test: HIV-1 replication in normal donor PBMCs (p24 Gag AlphaLISA); assay type: cell-based; conditions: Table 1, 4 days, words (Not active, Borderline) where no bound is given
Protocol: FIG. 4. Inhibition of HIV-1 replication by compounds disclosed herein in PBMCs. Donor PBMCs were infected with HIV-1 in the presence of inhibitor concentrations ranging from 1 to 1,000 nM or the DMSO carrier solvent as a negative control (0.1% DMSO final). Replication was assessed by p24 Gag AlphaLISA (Perkin Elmer) […]. Each donor was also infected with Nef-defective HIV-1 to establish the baseline for Nef-dependent enhancement of replication in each culture. Cytotoxicity was assessed in uninfected PBMCs over the same incubation period using the CellTiter-Blue assay (Promega). Data were fit by non-linear regression analysis (GraphPad Prism v.7.04) to determine the IC50 and CC50 values shown.
The tables also show data for HIV-1 Replication in normal donor peripheral blood mononuclear cells (PBMCs), which is assay is conducted as follows:
Non-HLA-typed buffy coats (Source: Pittsburgh Central Blood Bank, #E3755) are received and processed within 24 hours of blood donation. PBMCs are isolated via rocking for RBC separation following 1:1 dilution with PBS, followed by Ficoll gradient centrifugation. The lymphocyte fraction is removed and washed several times for a final concentration of ˜150-300×10^6 cells per donor. Cells are activated for 3 days with 1-5 μg/mL PHA (Sigma) and 50 U/mL IL-2. Cells are plated at 750,000 cells/ml and viability is checked at day 3 using the Cell Titer Blue assay (Promega). If cells are >90% viable, then they are infected with HIV-1 NL4-3, wild-type or Δ-Nef mutant (input typically 30-500 pg/mL p24 capsid equivalents) in the presence or absence of Nef inhibitor analogs. IL-2 is included in the media at the time of infection. After 4 days, cells are lysed with 1% Triton X-100 for 1.5 h, checked for viability via Cell Titer Blue, and frozen/stored at −20° C. HIV-1 replication is assessed with a high-sensitivity HIV-1 p24 AlphaLISA assay (Perkin Elmer) in ½-volume 96-well plates, using one-half of the recommended assay volumes for all reagents (including samples). Assays are read on the BioTek Cytation5 instrument; readout is in AlphaUnits and replication in p24 pg/mL is determined using an HIV-1 p24 capsid protein standard included in the Alpha kit.

TZM-bl cell line = assay type: cell-based; conditions: human, 1 μM
In short: as §1

HIV-1 NefNL4-3 = HIV-1 NefNL4-3 (Human immunodeficiency virus type 1 group M subtype B, UniProt P03406, A33V/T15A/T51N/V11I); test: Surface plasmon resonance binding to recombinant full-length Nef (NL4-3); conditions: for RU30/RUNef (extent of binding): response units at 30 μM relative to Nef immobilized on the SPR chip; for T, minutes (residence time): 2-step induced fit, T = 1/koff2
[1] = 48 h, Table 1, TZM-bl cells, 1 μM, 48 h, 100% = Nef-defective HIV-1, read-out: HIV-1 Infectivity % Inhibition Norm. to Δ-Nef @ 1 μM
[2] = Nef NL4-3 Binding, SPR 2-state fitting KD, Table 1, 2-step induced-fit model
[3] = 1.0 μM, TZM-bl reporter cell line, Table 4, read-out: % Infectivity Inhibition
[4] = read-out: Nef NL4-3 Binding, SPR 1:1 or 2-site fitting KD2, Table 1, 2-site fit, second component
[5] = KD, M, Table 4, SPR fit 2-step induced fit, KD = koff/kon × koff2/(koff2 + kon2)

| Compound | inhibition at 1 µM (HIV-1NL4-3; [1]) [%] | HIV Replication PBMC IC50 vs. HIV NL4-3 (HIV-1 NL4-3) | Percent Viability @ 1 μM (TZM-bl cells) (TZM-bl cell line) [%] | Kd (HIV-1 NefNL4-3; Nef NL4-3 Binding, SPR 1:1 or 2-site fitting KD2, Table 1, 2-site fit, second component) [nM] | Kd (HIV-1 NefNL4-3; [2]) [nM] | inhibition at 1 µM (HIV-1NL4-3; [3]) [%] | % Cell Viability (TZM-bl cell line) [%] | Kd (HIV-1 NefNL4-3) [nM] | Kd (HIV-1 NefNL4-3; [4]) [nM] | RU30/RUNef (extent of binding) (HIV-1 NefNL4-3) | Kd (HIV-1 NefNL4-3; [5]) [nM] | T, minutes (residence time) (HIV-1 NefNL4-3; Table 4) [E + 05 minutes] | IC50 (HIV-1 NL4-3; Human immunodeficiency virus 1, NL43, PBMC, 96 h) [nM] |
| --- | --- | --- | --- | --- | --- | --- | --- | --- | --- | --- | --- | --- | --- |
| Oc1c(CCc2ccc(F)cc2)c(-c2cccc(F)c2)nn1-c1nc2ccccc2[nH]1 [Compound I-110, 1-(1H-1,3-benzodiazol-2-yl)-3-(3-fluorophenyl)-4-[2-(4-fluorophenyl)ethyl]-1H-pyrazol-5-ol] | 84.9 | Not active | 88.4 | 2140 | 30.2 | – | – | – | – | – | – | – | – |
| Oc1c(CCc2ccc(F)cc2)c(-c2ccc(C(F)(F)F)cn2)nn1-c1nc2ccccc2[nH]1 [Compound I-119, 1-(1H-1,3-benzodiazol-2-yl)-4-[2-(4-fluorophenyl)ethyl]-3-[5-(trifluoromethyl)pyridin-2-yl]-1H-pyrazol-5-ol] | 80.7 | Not active | 77.1 | – | – | 80.7 | 77.1 | 0.0189 | 6830 | 7.52E- 03 | – | – | – |
| Oc1c(CC2CCCC2)c(-c2ccc(C(F)(F)F)cc2)nn1-c1nc2ccccc2[nH]1 [Compound I-123, 1-(1H-1,3-benzodiazol-2-yl)-4-(cyclopentylmethyl)-3-[4-(trifluoromethyl)phenyl]-1H-pyrazol-5-ol] | 96.1 | Not active | 85.3 | – | 0.0936 | 96.1 | 85.3 | 88.8 | 87800 | 2.57E- 02 | 0.0936 | 3.79 | – |
| Oc1c(CCc2ccc(F)cc2)c(C2CCC2)nn1-c1nc2ccccc2[nH]1 [Compound I-129, 1-(1H-1,3-benzodiazol-2-yl)-3-cyclobutyl-4-[2-(4-fluorophenyl)ethyl]-1H-pyrazol-5-ol] | 60.9 | – | 99.3 | – | 0.0371 | 60.9 | 99.3 | 2.38 | 16800 | 1.28E- 02 | 0.0371 | 5.19 | ≤ 10 |
| Oc1c(CCc2ccc(F)cc2)c(-c2ccc3c(c2)OC(F)(F)O3)nn1-c1nc2ccccc2[nH]1 [Compound I-145, 1-(1H-1,3-benzodiazol-2-yl)-3-(2,2-difluoro-2H-1,3-benzodioxol-5-yl)-4-[2-(4-fluorophenyl)ethyl]-1H-pyrazol-5-ol] | -11.7 | Not active | 98.2 | – | – | 0 | 98.2 | – | – | 4.38E- 03 | – | – | – |
| Oc1c(CCc2ccc(F)cc2)c(-c2ccc(C(F)(F)F)cc2)nn1-c1nc2ccc(Cl)cc2[nH]1 [Compound I-161, 1-(6-chloro-1H-1,3-benzodiazol-2-yl)-4-[2-(4-fluorophenyl)ethyl]-3-[4-(trifluoromethyl)phenyl]-1H-pyrazol-5-ol] | 38.7 | Not active | 89.9 | – | – | 38.7 | 89.9 | – | – | 1.44E- 02 | – | – | – |
| Oc1c(CCc2ccc(F)cc2)c(C2CCN(CC(F)(F)F)CC2)nn1-c1nc2ccccc2[nH]1 [Compound I-1003, 1-(1H-1,3-benzodiazol-2-yl)-4-[2-(4-fluorophenyl)ethyl]-3-[1-(2,2,2-trifluoroethyl)piperidin-4-yl]-1H-pyrazol-5-ol] | 42.3 | – | 100.9 | – | – | – | – | 1810 | – | – | – | – | – |
